Results as given in patent publication US20120016019A1, “PHARMACEUTICAL COMPOSITION FOR TREATING OR PREVENTING CANCER” (priority 2010, published 2012).
Several values for one entry are separate records, joined by “and”; a condition that tells them apart may be missing. Equal values may be shown once.

Tests used:
Type in all cases: cell-based
[1] = test system: SKBR3; test: Cell counts, SKBR3; conditions: for cell counts: single wells
Protocol: (§3) Cancer cell lines HCC 1419, MCF-7, MDA-MB-468, SKBR3, PC3, HT1299, Saos-2, C-6, AsPc, MDA-MB-231, RKO, HeLa and TT, and normal cell lines HME 50 HT, BJ and CCD-1074sk were tested for changes in metabolism (XTT assay) and cell death (cell counts).
(§4) Cells were plated into 48-well Corning CellBind™ plates at densities of 20,000 cells for normal cells and 10,000˜20,000 cells for cancer cells. 24 to 48 h after plating, cells were treated with the composition according to the invention at concentrations of 4.5e-2M. The first time point treated with the composition of the invention is 0 h. At 3 days after the first treatment with the composition of the invention, medium was changed and the composition of the invention at the same concentrations were added to the cultured cells.
(§5) Cells were harvested using Trypsin-EDTA at the designated time points. […] Two 48-well plates were used per cell line, and they were measured at 0 h, 12 h, 24 h, 48 h, 4 d and 7 d, respectively.
(§6) In the 1st plate, cells were treated with the composition according to the invention and medium was changed at 0 h and 3 d. […] As a result, LC-50 curves were generated in the 1st week.

[2] = test system: MDA-MB-231; test: Cell counts, MDA-MB-231
Protocol: (§1) As a result, LC-50 curves were generated in the 1st week.
(§2) In the 2nd plate, 7 d of the 1st week (LC-50) is the same as 0 h of the 2nd week (recovery).
At 0 h of the 2nd week, medium was exchanged with untreated medium for the remainder of the experiment. The untreated controls were not measured in the 2nd week (recovery) due to overconfluence by the end of the 1st week. As a result, Recovery curves were generated in the 2nd week.

[3] = test system: Saos-2; test: Cell counts, Saos-2
Protocol: as §3, §4, §5, §6

[4] = test system: TT; test: Viability by trypan blue staining, TT; conditions: for viability (%) calculated from the cell counts: single value
Protocol: as §4
Cells were harvested using Trypsin-EDTA at the designated time points. When total cells for each well were counted with a Beckman-Coulter Z1 Particle Characterization Unit, the vertical axis represents 1/20 of cell number in the Figures attached to the specification, while when counted with a Beckman-Coulter Vi-Cell, the vertical axis represents cell number in the Figures. Two 48-well plates were used per cell line, and they were measured at 0 h, 12 h, 24 h, 48 h, 4 d and 7 d, respectively.
The viability was determined by using the trypan blue staining in the well of cell counting.

[5] = test system: HT 1299; test: Cell counts, HT 1299; conditions: for cell counts: single wells
Protocol: as §1, §2
At 0 h of the 2nd week, medium was exchanged with untreated medium for the remainder of the experiment. […] As a result, Recovery curves were generated in the 2nd week.
HT 1299 is a non-small cell lung cancer. The cells have a homozygous partial deletion of the p53 protein, and lack expression of p53 protein.

CC(=O)O[C@H]1C(=O)[C@@]2(C)[C@H]([C@H](OC(=O)c3ccccc3)[C@]3(O)C[C@H](OC(=O)[C@H](O)[C@@H](NC(=O)c4ccccc4)c4ccccc4)C(C)=C1C3(C)C)[C@]1(OC(C)=O)CO[C@@H]1C[C@@H]2O [Taxol]
cell counts, Mean value ([1]; 1st week (LC50), 0 h): 2667 | cell counts ([1]; 1st week (LC50), 0 h): 2000 and 4000 | cell counts, Mean value ([1]; 1st week (LC50), 24 h): 9333 | cell counts ([1]; 1st week (LC50), 24 h): 6000 and 11000 | cell counts, Mean value ([1]; 1st week (LC50), 48 h): 4000 | cell counts ([1]; 1st week (LC50), 48 h): 4000 | cell counts, Mean value ([1]; 1st week (LC50), 4 d): 1000 | cell counts ([1]; 1st week (LC50), 4 d): 1000 | cell counts, Mean value ([1]; 1st week (LC50), 7 d): 3000 | cell counts, Mean value ([1]; 2nd week (recovery), 0 h): 70667 | cell counts ([1]; 2nd week (recovery), 0 h): 60000 and 80000 and 72000 | cell counts, Mean value ([1]; 2nd week (recovery), 24 h): 49333 | cell counts ([1]; 2nd week (recovery), 24 h): 32000 and 60000 and 56000 | cell counts, Mean value ([1]; 2nd week (recovery), 48 h): 44000 | cell counts ([1]; 2nd week (recovery), 48 h): 56000 and 36000 and 40000 | cell counts, Mean value ([1]; 2nd week (recovery), 4 d): 17250 | cell counts ([1]; 2nd week (recovery), 4 d): 15000 and 12500 and 22000 | cell counts, Mean value ([1]; 2nd week (recovery), 7 d): 10000 | cell counts ([1]; 2nd week (recovery), 7 d): 10000 and 12000 and 8000 | cell counts ([2]; 1st week (LC50), 0 h): 47000 and 42000 and 53000 | cell counts, Mean value ([2]; 1st week (LC50), 0 h): 47333 | cell counts ([2]; 1st week (LC50), 24 h): 32000 and 39000 and 22000 | cell counts, Mean value ([2]; 1st week (LC50), 24 h): 31000 | cell counts ([2]; 1st week (LC50), 48 h): 13000 and 16000 and 23000 | cell counts, Mean value ([2]; 1st week (LC50), 48 h): 17333 | cell counts ([2]; 1st week (LC50), 4 d): 19500 and 24000 and 26500 | cell counts, Mean value ([2]; 1st week (LC50), 4 d): 23333 | cell counts, Mean value ([2]; 1st week (LC50), 7 d): 9667 | growth of the cell population ([2]; 2nd week (recovery)): begins to grow and shows the sign of recovering | cell counts ([2]; 2nd week (recovery), 0 h): 12500 and 17500 and 22000 | cell counts, Mean value ([2]; 2nd week (recovery), 0 h): 17333 | cell counts ([2]; 2nd week (recovery), 24 h): 16000 and 32000 and 24000 | cell counts, Mean value ([2]; 2nd week (recovery), 24 h): 24000 | cell counts, Mean value ([2]; 2nd week (recovery), 48 h): 24500 | cell counts, Mean value ([2]; 2nd week (recovery), 4 d): 22167 | cell counts, Mean value ([2]; 2nd week (recovery), 7 d): 32000 | process of cell death (microscopy) [3]: cell membranes were ruptured by toxicity of Taxol, and then nuclei of cells changed into black | cell counts ([3]; 1st week (LC50), 0 h): 2143 and 2221 and 2135 | cell counts, Mean value ([3]; 1st week (LC50), 0 h): 2166 | cell counts ([3]; 1st week (LC50), 12 h): 1756 and 1790 and 1705 | cell counts, Mean value ([3]; 1st week (LC50), 12 h): 1750 | cell counts ([3]; 1st week (LC50), 24 h): 1529 and 1376 and 1452 | cell counts, Mean value ([3]; 1st week (LC50), 24 h): 1452 | cell counts ([3]; 1st week (LC50), 48 h): 857 and 822 and 776 | cell counts, Mean value ([3]; 1st week (LC50), 48 h): 818 | cell counts, Mean value ([3]; 1st week (LC50), 4 d): 420 | cell counts, Mean value ([3]; 2nd week (recovery), 0 h): 609 | cell counts, Mean value ([3]; 2nd week (recovery), 24 h): 183 | cell counts ([3]; 2nd week (recovery), 48 h): 312 and 249 and 165 | cell counts, Mean value ([3]; 2nd week (recovery), 48 h): 242 | cell counts ([3]; 2nd week (recovery), 4 d): 416 and 589 and 602 | cell counts, Mean value ([3]; 2nd week (recovery), 4 d): 536 | cell counts, Mean value ([3]; 2nd week (recovery), 7 d): 635 | viability (%) ([4]; 1st week (LC50), 0 h): 79.5% and 80.8% and 78.4% | viability (%), Mean value ([4]; 1st week (LC50), 0 h): 79.6% | viability (%) ([4]; 1st week (LC50), 24 h): 76.5% and 64.7% and 72.7% | viability (%), Mean value ([4]; 1st week (LC50), 24 h): 71.3% | viability (%) ([4]; 1st week (LC50), 48 h): 72.5% and 72% and 76.9% | viability (%), Mean value ([4]; 1st week (LC50), 48 h): 73.8% | viability (%) ([4]; 1st week (LC50), 4 d): 70.1% | viability (%), Mean value ([4]; 1st week (LC50), 4 d): 67.8% | viability (%) ([4]; 1st week (LC50), 7 d): 75% and 37.5% | viability (%), Mean value ([4]; 1st week (LC50), 7 d): 59.7% | viability (%), Mean value ([4]; 2nd week (recovery), 0 h, trypan blue, mean value): 65% | viability (%) calculated from the cell counts ([4]; 2nd week (recovery), 0 h, trypan blue): 70% and 75% and 50% | viability (%), Mean value ([4]; 2nd week (recovery), 24 h, trypan blue, mean value): 41.1% | viability (%), Mean value ([4]; 2nd week (recovery), 48 h, trypan blue, mean value): 35.1% | viability (%), Mean value ([4]; 2nd week (recovery), 4 d, trypan blue, mean value): 37.6% | viability (%), Mean value ([4]; 2nd week (recovery), 7 d, trypan blue, mean value): 33.5% | viability (%) calculated from the cell counts ([4]; 2nd week (recovery), 7 d, trypan blue): 25% and 42.3% | process of cell death (microscopy) [5]: cell membranes were ruptured by toxicity of Taxol, and then nuclei of cells changed into black | cell counts, Mean value ([5]; 1st week (LC50), 0 h): 3737 | cell counts, Mean value ([5]; 1st week (LC50), 12 h): 3705 | cell counts ([5]; 1st week (LC50), 12 h): 2680 and 3085 and 5350 | cell counts, Mean value ([5]; 1st week (LC50), 24 h): 3252 | cell counts ([5]; 1st week (LC50), 24 h): 2810 and 4255 and 2690 | cell counts, Mean value ([5]; 1st week (LC50), 48 h): 1464 | cell counts ([5]; 1st week (LC50), 48 h): 1382 and 1526 and 1484 | cell counts ([5]; 1st week (LC50), 4 d): 488 and 536 and 712 | cell counts, Mean value ([5]; 1st week (LC50), 7 d): 782 | cell counts ([5]; 1st week (LC50), 7 d): 982 and 736 | cell counts, Mean value ([5]; 2nd week (recovery), 0 h): 919 | cell counts ([5]; 2nd week (recovery), 0 h): 1193 and 789 and 776 | cell counts, Mean value ([5]; 2nd week (recovery), 24 h): 227 | cell counts, Mean value ([5]; 2nd week (recovery), 48 h): 432 | cell counts ([5]; 2nd week (recovery), 48 h): 410 and 499 and 386 | cell counts, Mean value ([5]; 2nd week (recovery), 4 d): 446 | cell counts ([5]; 2nd week (recovery), 4 d): 322 and 545 and 470 | cell counts, Mean value ([5]; 2nd week (recovery), 7 d): 118 | cell counts ([5]; 2nd week (recovery), 7 d): 104 and 144 and 107
